{"source": "patent US9006191B2", "about": "“Silencing of polo-like kinase expression using interfering RNA” (Protiva Biotherapeutics, Inc., priority 2007, dated 2015)", "key": {"[1]": {"tested_on": "anti-PEG-lipid IgG and IgM antibodies", "test": "In vivo PEG-lipid antibody induction assay", "design": "species or system mouse", "conditions": "CD1 ICR mice, 1:57 SNALP IV at Days 0, 7, 14; plasma Days 7, 14, 21", "experimental": "In vivo PEG-lipid antibody induction assays. Animal studies were performed to test for the induction of an antibody response to 2′OMe-modified PLK1424 siRNAs that were encapsulated in a 1:57 SNALP formulation containing the lipid conjugate PEG-cDMA. Six-week-old female CD1 ICR mice were used in this study. […] Mice were then sacrificed on Day 21. The tolerability of the treatment regime was monitored by animal appearance, behavior, and body weight. Anti-PEG-lipid IgG and IgM antibodies in plasma at Days 7, 14, and 21 were measured by ELISA."}, "IFN-α, IFIT1 mRNA": {"tested_on": "IFN-α, IFIT1 mRNA", "test": "In vivo immune stimulation assay in CD1 ICR mice (plasma IFN-α, IFIT1 mRNA)", "design": "species or system mouse", "conditions": "1:57 PEG-cDMA SNALP, 3 mg/kg IV, 4 h", "experimental": "In vivo immune stimulation assays. Animal studies were performed to test for the immunostimulatory activity of SNALP containing 2′OMe-modified PLK1424 siRNAs. Six-week-old female CD1 ICR mice were used in this study. […] The tolerability of the treatment regime was monitored by animal appearance and behavior."}, "[2]": {"test": "SNALP particle size and polydispersity", "format": "physicochemical"}, "IFIT1 mRNA, serum IFNα [3]": {"tested_on": "IFIT1 mRNA, serum IFNα", "test": "In vivo immune stimulation assay in Balb/c mice (IFIT1 mRNA, serum IFNα)", "conditions": "2 mg/kg IV, 4 h"}, "IFIT1 mRNA, serum IFNα [4]": {"tested_on": "IFIT1 mRNA, serum IFNα", "conditions": "mouse, in vivo, iv"}, "Hep3B liver tumors": {"tested_on": "Hep3B liver tumors", "test": "Intrahepatic Hep3B tumor model (survival, body weight, tumor burden)", "format": "in vivo", "conditions": "Hep3B-nu/nu mouse model, 2 mg/kg twice weekly d11-d28", "experimental": "SNALP containing PLK-1 siRNA (“1:57” SNALP formulation: 1.4% PEG-cDMA; 57.1% DLinDMA; 7.1% DPPC; and 34.3% cholesterol) were tested for their effects on the survival of […] mice bearing Hep3B liver tumors.\nIntrahepatic tumor models. Liver tumors were established in mice by direct intrahepatic injection of Hep3B or Neuro2a tumor cells (45). Female scid/beige mice (Charles River Laboratories) and male A/J mice (Jackson Laboratories) were used as hosts for the Hep3B and Neuro2a tumors, respectively. Animals received Anafen by SC injection immediately prior to surgery. Individual mice were anaesthetized by isoflourane gas inhalation and eye lube applied to prevent excessive eye drying. While maintained under gas anaesthesia, a single 1.5 cm incision across the midline was made below the sternum and the left lateral hepatic lobe exteriorized. 1×10^6 Hep3B cells or 1×10^5 Neuro2a cells suspended in 25 μL PBS were injected slowly into the lobe at a shallow angle using a Hamilton syringe and 30G needle. A swab was then applied to the puncture wound to stop any bleeding prior to suturing. Mice were allowed to recover from anaesthesia in a sterile cage and monitored closely for 2-4 h before being returned to conventional housing.\nEight to 11 days after tumor implantation, mice were randomized into treatment groups. siRNA SNALP formulations or PBS vehicle control were administered by standard intravenous injection via the lateral tail vein, calculated on a mg siRNA/kg basis according to individual animal weights (10 mL/kg injection volume). Body weights were then monitored throughout the duration of the study as an indicator of developing tumor burden and treatment tolerability. For efficacy studies, defined humane endpoints were determined as a surrogate for survival. Assessments were made by qualified veterinary technicians based on a combination of clinical signs, weight loss, and abdominal distension to define the day of euthanization due to tumor burden.\nMeasurement of human PLK-1 and GAPDH mRNA in tumor tissues. Tumors were harvested directly into RNALater and stored at 4° C. until processing. 100 mg tumor tissue was homogenized in Tissue and Lysis Solution (EpiCentre Biotechnologies) containing […] proteinase K (EpiCentre) in a Fastprep tissue homogenizer followed by incubation in a 65° C. waterbath for 15 min and centrifuged to clarify lysates. mRNA analysis in FIG. 33B was performed on purified RNA isolated according the 5′-RACE-PCR protocol. Human PLK-1 and GAPDH mRNA were measured in tumor lystes by the QuantiGene bDNA assay (Panomics) as per the manufacturer's instructions (Quantigene 1.0 Manual). […] Data were expressed as mean PLK-1:GAPDH ratio+/−SD of individual animals. Tumor burden was assessed by homogenizing the complete liver from tumor bearing mice and measuring the total hGAPDH signal (RLU's) within the liver. Values were expressed as hGAPDH RLU/mg total liver."}, "KSP mRNA": {"tested_on": "KSP mRNA", "test": "KSP mRNA silencing in Neuro2a cells (bDNA assay)", "format": "cell-based, mouse", "conditions": "24 h after transfection", "excerpt": "Activity of the 2′OMe-modified panels of (A) PLK1424 and (B) PLK773 siRNA. Unmodified PLK1424 or PLK773 siRNA (black) were compared in the Hep3B cell viability assay to the 2′OMe modified duplexes 1/A, 2/A, 1/B, 2/B, 1/C, or 2/C that comprise the respective 2′OMe sense/antisense oligonucleotides (see, Table 6). Data are mean viability of triplicate cultures relative to PBS treated cells and representative of 2 independent experiments using SNALP-formulated siRNA. (C) Cytokine induction by unmodified and 2′OMe PLK-1 siRNA in vitro. Murine Flt3L DC were treated with 5 μg/mL unmodified PLK773 or PLK1424 siRNA duplexes (773, 1424) and their constituent sense (S) or antisense (AS) oligonucleotides or the 2′OMe siRNA duplexes PLK773-1/B and PLK1424-2/A formulated in SNALP. IFNα and IL-6 were assayed in culture supernates at 24 h. Values are mean+SD of 3 separate experiments conducted in triplicate cultures. (D,E) Activity of SNALP-formulated KSP2263 siRNA in murine Neuro2a cells. (D) Correlation between KSP mRNA silencing and cell viability relative to PBS control. KSP mRNA was determined by bDNA analysis at 24 h. Duplicate plates were assessed for cell viability at 72 h. (E) Activity screen comparing the unmodified KSP2263 siRNA to the panel of 2′OMe-modified duplexes (see, Table 6) in the Neuro2a cell viability assay. Data represents mean+/−SD triplicate cultures, relative to PBS treatment. […]"}, "HeLa cells": {"tested_on": "HeLa cells", "test": "Monoastral spindle formation in HeLa cells", "format": "cell-based, human", "conditions": "20 nM, 16 h", "experimental": "HeLa cells were treated for 16 h with (A) Luc or (B) KSP2263 siRNA at 20 nM then immunostained for α-tubulin (FITC). DNA was stained with DAPI and flourescent images captured and overlayed."}, "Neuro2A cells": {"tested_on": "Neuro2A cells", "test": "Neuro2A cell viability assay (CellTiter-Blue)", "format": "cell-based", "conditions": "mouse Neuro2A cells, SNALP-formulated siRNA, viability at 72 h relative to PBS", "experimental": "Various PLK-1 siRNAs were formulated as SNALP (“2:40” SNALP formulation: 2% PEG-cDMA; 40% DLinDMA; 10% DSPC; and 48% cholesterol) and evaluated for their inhibitory effects on cell growth in vitro. HT29 (human colon adenocarcinoma) or Neuro2A (mouse neuroblastoma) cells were treated with various PLK-1 SNALP at a range of siRNA concentrations and their effect on cell viability was evaluated. Viability of cell cultures is expressed as % viability relative to PBS treated controls.\nAdditional PLK-1 siRNA molecules were formulated as SNALP (“2:40” SNALP formulation: 2% PEG-cDMA; 40% DLinDMA; 10% DSPC; and 48% cholesterol) and evaluated for their inhibitory effects on cell growth in vitro. HT29 or Neuro2A cells were plated in triplicate at 5000 cells/well and 2500 cells/well, respectively. PLK-1 SNALP dosages were as follows: 25 nM; 5 nM; and 1 nM. Cell viability analysis was performed at 72 hours following transfection. SNALP containing a non-targeting (GFP) siRNA were used as a negative control.\nAdditional PLK-1 siRNA molecules were formulated as SNALP (“2:40” SNALP formulation: 2% PEG-cDMA; 40% DLinDMA; 10% DSPC; and 48% cholesterol) and evaluated for their inhibitory effects on cell growth in vitro. HT29 or Neuro2A cells were plated in triplicate at 5000 cells/well and 2500 cells/well, respectively. PLK-1 SNALP dosages were as follows: 30 nM; 10 nM; and 3.3 nM. Cell viability analysis was performed at 72 hours following transfection. SNALP containing a non-targeting (GFP) siRNA were used as a negative control."}, "hepatocellular carcinoma": {"tested_on": "hepatocellular carcinoma", "conditions": "patients with advanced disease, phase III; cited from earlier work"}}, "note": "Where “and” joins values, the source holds several entries; their conditions need not be identical. Identical values can stand only once. Strand notation (5' to 3'): a small letter for the sugar, then the base; units joined by * are phosphorothioate-linked, units joined directly phosphodiester-linked; [ ] holds rarer units or linkages, { } end groups; capitals alone tell only the bases. d = 2'-deoxy (DNA); r = 2'-OH (RNA)"}
{"compound": "PLK1424 2/6: 2′OMe-modified PLK1424 siRNA, SEQ ID NO:400/403 (chain 1 AGANCACCCNCCUNAAANANU; chain 2 UAUUUAANGAGGGUNANCUNC; 2'-OMe modifications, chemistry not fully specified)", "values": [{"measurement": "IgG / IgM antibody response against PEG-lipid (PEG-cDMA)", "setting": "[1]", "result": "almost no detectable antibody responses against the PEG-lipid"}, {"measurement": "IFIT1 induction (QG analysis)", "setting": "IFN-α, IFIT1 mRNA", "result": "no significant IFIT1 induction above that of empty SNALP"}]}
{"compound": "Luc: unmodified siRNA targeting luciferase, SEQ ID NO:231/232 (chain 1 GAUUAUGUCCGGUUAUGUAUU; chain 2 UACAUAACCGGACAUAAUCUU; unmodified RNA)", "values": [{"measurement": "mean SNALP particle size", "setting": "[2]", "result": "90 nm and 82 nm and 72 nm"}, {"measurement": "increase in IFIT1 mRNA in the liver compared to PBS", "setting": "IFIT1 mRNA, serum IFNα [3]", "result": 83, "unit": "fold"}, {"measurement": "increase in IFIT1 mRNA in the spleen compared to PBS", "setting": "IFIT1 mRNA, serum IFNα [3]", "result": 247, "unit": "fold"}, {"measurement": "serum IFNα / serum cytokine response", "setting": "IFIT1 mRNA, serum IFNα [4]", "result": "detection of systemic IFNα"}, {"measurement": "median survival, Study (A)", "setting": "Hep3B liver tumors", "result": 67, "unit": "days"}, {"measurement": "median survival, study (B)", "setting": "Hep3B liver tumors", "result": "undefined"}]}
{"compound": "KSP2263: published siRNA targeting KSP, SEQ ID NO:225/226 (chain 1 rCrUrGrArArGrArCrCrUrGrArArGrArCrArArUdTdT; chain 2 rArUrUrGrUrCrUrUrCrArGrGrUrCrUrUrCrArGdTdT)", "values": [{"measurement": "mean SNALP particle size", "setting": "[2]", "result": 88, "unit": "nm"}, {"measurement": "polydispersity", "setting": "[2]", "result": 0.07}, {"measurement": "KSP mRNA", "setting": "KSP mRNA", "result": "dose-dependent reductions in KSP mRNA"}, {"measurement": "monoastral spindle phenotype", "setting": "HeLa cells", "result": "monoastral spindles"}, {"measurement": "cell viability / inhibition of cell growth", "setting": "Neuro2A cells", "result": "loss of cell viability at 72 h"}]}
{"compound": "PLK1424 2/3: 2′OMe-modified PLK1424 siRNA, SEQ ID NO:400/215 (chain 1 AGANCACCCNCCUNAAANANU; chain 2 UAUUUAANGAGGGUGANCUUU; 2'-OMe modifications, chemistry not fully specified)", "values": [{"measurement": "IgG / IgM antibody response against PEG-lipid (PEG-cDMA)", "setting": "[1]", "result": "almost no detectable antibody responses against the PEG-lipid"}, {"measurement": "IFIT1 induction (QG analysis)", "setting": "IFN-α, IFIT1 mRNA", "result": "no significant IFIT1 induction above that of empty SNALP"}]}
{"compound": "CNC(=O)c1cc(Oc2ccc(NC(=O)Nc3ccc(Cl)c(C(F)(F)F)c3)cc2)ccn1", "note": "[Sorafenib]", "values": [{"measurement": "survival time", "setting": "hepatocellular carcinoma", "result": 10.7, "unit": "mo"}]}
{"compound": "PLK1424 2/4: 2′OMe-modified PLK1424 siRNA, SEQ ID NO:400/401 (chain 1 AGANCACCCNCCUNAAANANU; chain 2 UAUUUAANGAGGGUGANCUUC; 2'-OMe modifications, chemistry not fully specified)", "values": [{"measurement": "IgG / IgM antibody response against PEG-lipid (PEG-cDMA)", "setting": "[1]", "result": "almost no detectable antibody responses against the PEG-lipid"}, {"measurement": "IFIT1 induction (QG analysis)", "setting": "IFN-α, IFIT1 mRNA", "result": "no significant IFIT1 induction above that of empty SNALP"}]}
